Data taken from patent US10618918B2, “Substituted boronic acids as antimicrobials” (priority 2015, dated 2020).
Like-named read-outs stand apart in the source and are kept apart here.

Experiments:
KP1004 KPC-2 [1] = experiment: Biapenem potentiation (MPC@1), strain KP1004 KPC-2; format: cell-based; settings: minimum BLI concentration inhibiting growth with biapenem 1 μg/mL; tested up to 40 μg/mL
Method: (§1) Biapenem was present in the test medium at 1 μg/mL. […] Table 3 summarizes the BLI potency of biapenem potentiation (MPC@1) for two strains overexpressing class A (KPC) and class D (OXA-48) carbapenemases. Biapenem MIC for each strain is also shown.

KP1005 CTX-M-14 = experiment: Tigemonam potentiation (MPC@4), strain KP1005 CTX-M-14
KP1010 SHV-12 = experiment: Aztreonam potentiation (MPC@4), strain KP1010 SHV-12
ec308 SHV-5 = experiment: Aztreonam potentiation (MPC@4), strain ec308 SHV-5; settings: minimum BLI concentration inhibiting growth with aztreonam 4 μg/mL; tested up to 40 μg/mL
PAM1154/KPC-2 = experiment: Biapenem potentiation MPC64 in PAM1154/KPC-2 (efflux deficient, lacks MexAB-OprM); format: cell-based, Pseudomonas aeruginosa
Method: (§2) Efflux of BLIs from Pseudomonas aeruginosa by the MexAB-OprM efflux pump was also evaluated. The plasmid expressing the gene encoding KPC-2 was introduced into two strains of P. aeruginosa, PAM1032 and PAM 1154 that overexpressed or lacked MexAB-OprM, respectively. […] Potency of BLIs to potentiate biapenem in these strains was determined.

ECL1002 = experiment: Aztreonam potentiation (MPC@4), strain ECL1002; settings: minimum BLI concentration inhibiting growth with aztreonam 4 μg/mL; tested up to 40 μg/mL
KP1009 CTX-M-15 = experiment: Aztreonam potentiation (MPC@4), strain KP1009 CTX-M-15; settings: minimum BLI concentration inhibiting growth with aztreonam 4 μg/mL; tested up to 40 μg/mL
ec302 TEM-10 = experiment: Aztreonam potentiation (MPC@4), strain ec302 TEM-10; settings: minimum BLI concentration inhibiting growth with aztreonam 4 μg/mL; tested up to 40 μg/mL
EC1010 CMY-6 = experiment: Aztreonam potentiation (MPC@4), strain EC1010 CMY-6
KP1086 OXA-48 = experiment: Biapenem potentiation (MPC@1), strain KP1086 OXA-48; format: cell-based; settings: minimum BLI concentration inhibiting growth with biapenem 1 μg/mL; tested up to 40 μg/mL
Method: as §1

KP1004 KPC-2 [2] = experiment: Aztreonam potentiation (MPC@4), strain KP1004 KPC-2
AB1054 OXA-23 = experiment: Meropenem potentiation (MPC@8), strain AB1054 OXA-23; format: cell-based, Acinetobacter baumannii
PAM1032/KPC-2 = experiment: Biapenem potentiation MPC64 in PAM1032/KPC-2 (efflux proficient, overexpresses MexAB-OprM); format: cell-based, Pseudomonas aeruginosa
Method: as §2

[3] = target: purified class A, C and D enzymes (β-lactamases) (Enterobacter cloacae, UniProt P05364); experiment: biochemical; format: biochemical
purified class A, C and D enzymes (β-lactamases) (Enterobacter cloacae, UniProt P05364), sequence (P05364 21-381): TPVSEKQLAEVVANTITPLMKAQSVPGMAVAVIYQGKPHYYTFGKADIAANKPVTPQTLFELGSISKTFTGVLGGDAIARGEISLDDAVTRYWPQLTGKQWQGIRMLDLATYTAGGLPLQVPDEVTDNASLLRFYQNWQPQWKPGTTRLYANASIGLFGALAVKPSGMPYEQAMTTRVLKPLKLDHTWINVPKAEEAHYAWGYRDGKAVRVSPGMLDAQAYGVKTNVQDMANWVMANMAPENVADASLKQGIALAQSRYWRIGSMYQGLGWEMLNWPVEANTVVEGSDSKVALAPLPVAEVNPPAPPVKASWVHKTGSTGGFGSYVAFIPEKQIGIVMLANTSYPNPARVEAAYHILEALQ

[4] = target: T1, purified class A, C and D enzymes (β-lactamases) (UniProt P0AD64, L31Q/G234S/E235K, species not given); experiment: biochemical; format: biochemical
T1 construct: Ki (SHV-12, NCF), uM; other: purified SHV-12; nitrocefin (NCF) as reporter substrate
T1 sequence (P0AD64 1-286 L31Q/G234S/E235K): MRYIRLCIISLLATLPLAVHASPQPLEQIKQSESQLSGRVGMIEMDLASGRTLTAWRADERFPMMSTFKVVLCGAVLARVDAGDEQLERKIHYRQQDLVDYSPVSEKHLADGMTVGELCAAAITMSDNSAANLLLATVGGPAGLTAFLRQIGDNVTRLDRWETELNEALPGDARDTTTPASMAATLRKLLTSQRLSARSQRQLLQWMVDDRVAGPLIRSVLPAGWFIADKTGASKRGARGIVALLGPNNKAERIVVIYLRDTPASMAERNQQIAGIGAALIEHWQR

[5] = target: T2, purified class A, C and D enzymes (β-lactamases) (Acinetobacter baumannii, UniProt Q9L4P2); experiment: biochemical; format: biochemical; settings: purified OXA-23; nitrocefin (NCF) as reporter substrate
T2 construct: rows headed: Ki (OXA-23, NCF), uM; other: purified OXA-23; nitrocefin (NCF) as reporter substrate
T2 sequence (Q9L4P2 whole entry): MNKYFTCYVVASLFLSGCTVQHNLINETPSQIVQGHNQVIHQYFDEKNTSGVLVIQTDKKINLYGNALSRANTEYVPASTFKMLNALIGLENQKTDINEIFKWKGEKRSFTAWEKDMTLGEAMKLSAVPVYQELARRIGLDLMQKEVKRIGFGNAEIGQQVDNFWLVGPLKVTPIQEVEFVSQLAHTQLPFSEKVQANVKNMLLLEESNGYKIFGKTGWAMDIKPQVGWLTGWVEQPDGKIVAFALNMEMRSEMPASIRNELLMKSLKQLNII

[6] = target: purified class A, C and D enzymes (β-lactamases) (Klebsiella pneumoniae, UniProt Q6XEC0); experiment: biochemical; format: biochemical
[7] = target: purified class A, C and D enzymes (β-lactamases) (Klebsiella pneumoniae, UniProt Q9F663); experiment: biochemical; format: biochemical
[8] = target: T3, purified class A, C and D enzymes (β-lactamases) (Pseudomonas aeruginosa, UniProt P24735); experiment: biochemical; format: biochemical
T3 construct: rows headed: Ki (Pa-AmpC, NCF), uM; other: purified Pa-AmpC; nitrocefin (NCF) as reporter substrate
T3 sequence (P24735 whole entry): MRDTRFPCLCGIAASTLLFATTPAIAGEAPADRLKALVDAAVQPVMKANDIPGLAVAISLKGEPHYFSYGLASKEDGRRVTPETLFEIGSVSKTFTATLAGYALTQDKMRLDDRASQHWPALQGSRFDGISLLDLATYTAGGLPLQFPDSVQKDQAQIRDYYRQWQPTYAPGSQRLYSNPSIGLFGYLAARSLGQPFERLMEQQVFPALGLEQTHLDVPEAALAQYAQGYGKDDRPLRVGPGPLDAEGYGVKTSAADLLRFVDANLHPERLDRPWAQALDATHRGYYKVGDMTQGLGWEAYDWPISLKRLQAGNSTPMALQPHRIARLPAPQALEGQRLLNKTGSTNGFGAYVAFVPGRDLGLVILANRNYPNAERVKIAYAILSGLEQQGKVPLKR

[9] = target: purified class A, C and D enzymes (β-lactamases) (Escherichia coli, UniProt Q9L5C7); experiment: biochemical; format: biochemical
purified class A, C and D enzymes (β-lactamases) (Escherichia coli, UniProt Q9L5C7), sequence (Q9L5C7 entry or part of it): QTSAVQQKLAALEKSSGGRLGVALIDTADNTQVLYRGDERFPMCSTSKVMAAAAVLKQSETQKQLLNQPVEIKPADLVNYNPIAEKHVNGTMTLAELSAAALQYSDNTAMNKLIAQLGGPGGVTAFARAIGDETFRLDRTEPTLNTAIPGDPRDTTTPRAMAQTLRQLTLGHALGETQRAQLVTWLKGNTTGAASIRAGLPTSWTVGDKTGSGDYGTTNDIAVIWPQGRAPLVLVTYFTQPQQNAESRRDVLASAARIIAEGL

AB1053 OXA-72 = experiment: Meropenem potentiation (MPC@8), strain AB1053 OXA-72; format: cell-based, Acinetobacter baumannii; settings: minimum BLI concentration inhibiting growth with meropenem 8 μg/mL; tested up to 20 μg/mL
biochemical = format: biochemical
[10] = minimum BLI concentration inhibiting growth with aztreonam 4 μg/mL, tested up to 40 μg/mL

Structure (SMILES): CSCC(=O)NC1CB(O)Oc2c(C(=O)O)cccc21 (stereo not drawn) [Compound 3, 2-HYDROXY-4-(2-(METHYLTHIO)ACETAMIDO)-3,4-DIHYDRO-2H-BENZO[E][1.2]OXABORININE-8-CARBOXYLIC ACID]
- BPM MPC1 KP1004 KPC-2 (KP1004 KPC-2 [1]): X (X = MPC@1 ≤ 5 μg/mL)
- TIG MPC4 CTX-M-14 KP1005 (KP1005 CTX-M-14; minimum BLI concentration inhibiting growth with tigemonam 4 μg/mL, tested up to 40 μg/mL): X (X = MPC@4 ≤ 5 μg/mL)
- AZT MPC4 SHV-12 KP1010 (KP1010 SHV-12; [10]): X (X = MPC@4 ≤ 5 μg/mL)
- AZT MPC4 SHV-5 ec308 (ec308 SHV-5): X (X = MPC@4 ≤ 5 μg/mL)
- PAM1154/KPC-2 Biapenem MPC64 (PAM1154/KPC-2; BLI concentration decreasing biapenem MIC 64-fold, from 32 μg/ml to 0.5 μg/ml, efflux deficient strain): 2.5
- AZT MPC4 ECL1002 (ECL1002): X (X = MPC@4 ≤ 5 μg/mL)
- AZT MPC4 CTX-M-15 KP1009 (KP1009 CTX-M-15): X (X = MPC@4 ≤ 5 μg/mL)
- AZT MPC4 TEM-10 ec302 (ec302 TEM-10): X (X = MPC@4 ≤ 5 μg/mL)
- AZT MPC4 CMY-6 EC1010 (EC1010 CMY-6; [10]): X (X = MPC@4 ≤ 5 μg/mL)
- BPM MPC1 OXA-48 KP1086 (KP1086 OXA-48): X (X = MPC@1 ≤ 5 μg/mL)
- AZT MPC4 KPC-2 KP1004 (KP1004 KPC-2 [2]; [10]): X (X = MPC@4 ≤ 5 μg/mL)
- MPM MPC8 AB1054 OXA-23 (AB1054 OXA-23; minimum BLI concentration inhibiting growth with meropenem 8 μg/mL, tested up to 20 μg/mL): Z (Z = MPC@1 > 20 μg/mL)
- PAM1032/KPC-2 Biapenem MPC64 (PAM1032/KPC-2; BLI concentration decreasing biapenem MIC 64-fold, from 32 μg/ml to 0.5 μg/ml, efflux proficient strain): 20
- Ki (P99, NCF), uM ([3]; purified P99, nitrocefin (NCF) as reporter substrate): X (X = Ki ≤ 0.1 μM)
- Ki ([4]; purified SHV-12; nitrocefin (NCF) as reporter substrate; read-out: Ki (SHV-12, NCF)): < 100 nM
- Ki [5]: < 100 nM
- Ki (OXA-48, NCF), uM ([6]; purified OXA-48, nitrocefin (NCF) as reporter substrate): X (X = Ki ≤ 0.1 μM)
- Ki (KPC-2, NCF), uM ([7]; purified KPC-2, nitrocefin (NCF) as reporter substrate): X (X = Ki ≤ 0.1 μM)
- Ki ([8]; purified Pa-AmpC, nitrocefin (NCF) as reporter substrate, read-out: Ki (Pa-AmpC, NCF)): < 100 nM
- Ki (CTX-M-14, NCF), uM ([9]; purified CTX-M-14, nitrocefin (NCF) as reporter substrate): X (X = Ki ≤ 0.1 μM)
- MPM MPC8 AB1053 OXA-72 (AB1053 OXA-72): Y (Y = 5 μg/mL < MPC@1 ≤ 20 μg/mL)

Structure (SMILES): O=C([O-])c1nccc2c1O[B-](O)(O)CC2.[Na+].[Na+] [Compound 6, DISODIUM; 4,4-DIHYDROXY-5-OXA-8-AZA-4-BORANUIDABICYCLO[4.4.0]DECA-1(6),7,9-TRIENE-7-CARBOXYLATE]
- BPM MPC1 KP1004 KPC-2 (KP1004 KPC-2 [1]): X (X = MPC@1 ≤ 5 μg/mL)
- TIG MPC4 CTX-M-14 KP1005 (KP1005 CTX-M-14): Y (key: X = MPC@4 ≤ 5 μg/mL; Y = 5 μg/mL < MPC@4 ≤ 20 μg/mL; Z = MPC@4 > 20 μg/mL)
- AZT MPC4 SHV-12 KP1010 (KP1010 SHV-12): X (key: X = MPC@4 ≤ 5 μg/mL; Y = 5 μg/mL < MPC@4 ≤ 20 μg/mL; Z = MPC@4 > 20 μg/mL)
- AZT MPC4 SHV-5 ec308 (ec308 SHV-5): Y (Y = 5 μg/mL < MPC@4 ≤ 20 μg/mL)
- PAM1154/KPC-2 Biapenem MPC64 (PAM1154/KPC-2): 0.3
- AZT MPC4 ECL1002 (ECL1002): X (X = MPC@4 ≤ 5 μg/mL)
- AZT MPC4 CTX-M-15 KP1009 (KP1009 CTX-M-15): X (X = MPC@4 ≤ 5 μg/mL)
- AZT MPC4 TEM-10 ec302 (ec302 TEM-10): X (X = MPC@4 ≤ 5 μg/mL)
- AZT MPC4 CMY-6 EC1010 (EC1010 CMY-6): X (key: X = MPC@4 ≤ 5 μg/mL; Y = 5 μg/mL < MPC@4 ≤ 20 μg/mL; Z = MPC@4 > 20 μg/mL)
- BPM MPC1 OXA-48 KP1086 (KP1086 OXA-48): X (X = MPC@1 ≤ 5 μg/mL)
- AZT MPC4 KPC-2 KP1004 (KP1004 KPC-2 [2]): X (key: X = MPC@4 ≤ 5 μg/mL; Y = 5 μg/mL < MPC@4 ≤ 20 μg/mL; Z = MPC@4 > 20 μg/mL)
- MPM MPC8 AB1054 OXA-23 (AB1054 OXA-23): X (key: X = MPC@1 ≤ 5 μg/mL; Y = 5 μg/mL < MPC@1 ≤ 20 μg/mL; Z = MPC@1 > 20 μg/mL)
- PAM1032/KPC-2 Biapenem MPC64 (PAM1032/KPC-2): 5
- Ki (P99, NCF), uM [3]: X (key: X = Ki ≤ 0.1 μM; Y = 0.1 μM < Ki ≤ 1 μM; Z = Ki > 1 μM)
- Ki ([4]; read-out: Ki (SHV-12, NCF); purified SHV-12; nitrocefin (NCF) as reporter substrate): < 100 nM
- Ki (OXA-48, NCF), uM [6]: X (key: X = Ki ≤ 0.1 μM; Y = 0.1 μM < Ki ≤ 1 μM; Z = Ki > 1 μM)
- Ki (KPC-2, NCF), uM [7]: X (key: X = Ki ≤ 0.1 μM; Y = 0.1 μM < Ki ≤ 1 μM; Z = Ki > 1 μM)
- Ki [8]: < 100 nM
- Ki (CTX-M-14, NCF), uM [9]: X (key: X = Ki ≤ 0.1 μM; Y = 0.1 μM < Ki ≤ 1 μM; Z = Ki > 1 μM)
- Ki (biochemical): < 100 nM
- MPM MPC8 AB1053 OXA-72 (AB1053 OXA-72): X (X = MPC@1 ≤ 5 μg/mL)
